Assay results from patent publication US11957684B2, “Treatment of heavy menstrual bleeding associated with uterine fibroids” (Sumitomo Pharma Switzerland GmbH, priority 2016, dated 2024).
“And” between values parts separate entries of the source, which are not always exact repeats. Identical values can stand only once.

How the values were obtained:
[1] = Example 5A: plasma concentrations, population PK; type: in vivo, human
Description: At Visit 3, blood was drawn twice, at 0.5 to 1.5 hours postdose and at 2 to 5 hours postdose, from each evaluable subject. At Visits 4, 5 and 6, blood was drawn once immediately prior to the dose for each day, and again at 0.5 to 1.5 hours postdose and at 2 to 5 hours postdose, from each evaluable subject. Blood was drawn only once for patients who took the study drug for the day before visiting the investigational site. At Visit 7, blood was drawn only once at the visit.

FIG. 7E = test: FIG. 7E
Excerpt: Table printed on a drawing sheet, FIG. 7E
(§1) The patent's description of the figure: FIGS. 7A-F are tables of plasma PK parameters for Cohorts 8 to 10 in accordance with Example 4.
First reader's note: Each column is a dose group; according to the description these are plasma PK parameters on Day 14 (Cohorts 8 to 10).

FIG. 7B = test: FIG. 7B
Excerpt: Table printed on a drawing sheet, FIG. 7B
as §1
First reader's note: Each column is a dose group; per the description these are Day 1 plasma PK values for Cohorts 8 to 10.

[2] = Example 4: pharmacodynamics (serum hormones, urine 6β-hydroxycortisol to cortisol ratio); type: in vivo, human; details: in vivo
Excerpt: (§2) Descriptive statistics were used to summarize pharmacodynamic parameters: serum concentrations of estradiol (E2), FSH, LH, progesterone, growth hormone (GH), prolactin (PRL), thyrotropin, adrenocorticotropic hormone (ACTH) and urine 6β-hydroxycortisol to cortisol ratios (Q).

[3] = system: estradiol (E2), FSH, LH, progesterone; test: as above; type: in vivo, human; details: 10 mg to 40 mg QD
Excerpt: as §2

FIG. 5B = test: FIG. 5B
Excerpt: Table printed on a drawing sheet, FIG. 5B
The patent's description of the figure: FIGS. 5A-C are tables of plasma pharmacokinetic (PK) parameters for Cohorts 1 to 6 in accordance with Example 4.
First reader's note: Plasma PK parameters by dose cohort; the series starts in FIG. 5A on another sheet and continues in FIG. 5C.

clinical = details: for half-life: human, in vivo
Excerpt: (See J. W. Ng, et al., “Dose-Dependent Suppression of Gonadotropins and Ovarian Hormones by Elagolix in Healthy Premenopausal Females” (poster, 2016); J. Grundy, et al., […] (2008), Vol 83: Supplement 1, S9).

[4] = system: healthy premenopausal women; test: Example 4: safety and tolerability; type: in vivo, human; details: single doses up to 80 mg, up to 40 mg QD for 14 days
Excerpt: The study was a phase 1, double-blind, randomized, placebo-controlled, sequential-panel, ascending single- and multiple-dose study in healthy premenopausal women. Ten groups, each of 12 healthy premenopausal, adult women, participated in the study (Cohorts 1 to 10).
Serum chemistry, hematology, urinalysis, vital signs, and ECGs were monitored during the study up to 1 week after the last dose. There were no meaningful changes in these parameters in the Compound 1 dose groups compared with placebo. QT and corrected QT interval (QTc) intervals >450 msec and […] were seen across all dose groups, including the placebo group.

[5] = system: healthy pre-menopausal women; test: Example 9: pharmacodynamics, menstruation, hot flash diary, bone resorption markers; type: in vivo, human
Excerpt: Methods: This was a 6-week phase 1, randomized, open-label, parallel-group, study conducted at 4 sites in the US. […] The first day of dosing occurred on Day 1 to 6 of the menstrual cycle. Hormonal preparations were prohibited for at least 3 months prior to screening. […] Vasomotor symptoms were captured using a daily diary (from screening until follow-up).

[6] = system: women with uterine fibroids; details: in vivo
Description: Secondary endpoints for safety included: Adverse events (AEs), vital signs, weight, standard 12-lead electrocardiogram (ECG), clinical laboratory tests, BMD, biochemical bone metabolism markers (serum N-telopeptide [NTELOP] and bone specific alkaline phosphatase [BAP])

SMILES: CONC(=O)Nc1ccc(-c2sc3c(c2CN(C)C)c(=O)n(-c2ccc(OC)nn2)c(=O)n3Cc2c(F)cccc2F)cc1 [Compound 1, N-(4-(1-(2,6-difluorobenzyl)-5-((dimethylamino)methyl)-3-(6-methoxy-3-pyridazinyl)-2,4-dioxo-1,2,3,4-tetrahydrothieno[2,3-d]pyrimidin-6-yl)phenyl)-N′-methoxyurea]
- increase in relative bioavailability, 40 mg vs 10 mg ([1]; human, plasma, oral, population PK, read-out: relative bioavailability higher in 40-mg compared with 10-mg): 30.9%
- absorption rate constant (ka) ([1]; population estimate): 0.416 h⁻¹
- apparent oral clearance (CL/F) ([1]; population estimate): 198 L/h
- CL/F (L/hr) | Mean (FIG. 7E): 569.7 L/h and 436.3 L/h and 373.4 L/h
- Vz/F (L) | Mean (FIG. 7E): 5041.8 L and 3618.3 L and 3086.5 L
- CL/F (L/hr) | Mean (FIG. 7B): 959.7 L/h and 697.6 L/h
- Tmax (hr) | Median (FIG. 7B): 1.480 h
- effect on endogenous GH, PRL, thyrotropin, and ACTH [2]: no apparent effect
- ovulation (post-ovulation progesterone increase) [3]: prevented ovulation
- Tmax (hr) | Median (FIG. 5B): 0.775 h and 1.015 h and 1.500 h
- E2 in the majority of subjects (clinical; 40 mg per day): below 10 pg/mL
- half-life (clinical; T1/2, highest found): ~61 h
- half-life (clinical; half-life (T1/2)): 37 to 42 h
- safety and tolerability [4]: safe and well tolerated
- No bleeding ([5]; last 28 days of treatment): 18 (72.0%) n (%)
- No light/normal/heavy bleeding (i.e., no bleeding except spotting) ([5]; last 28 days of treatment): 22 (88.0%) n (%)
- No normal/heavy bleeding ([5]; last 28 days of treatment): 23 (92.0%) n (%)
- subjects reporting no menstrual bleeding (except spotting) ([5]; last 28 days of treatment): 88.0%
- subjects reporting no normal or heavy bleeding ([5]; last 28 days of treatment): 92.0%
- average number of hot flash per subject (any severity) ([5]; week 6): 72.6
- number of hot flash in subjects reporting severe hot flash ([5]; week 6): 63.2
- proportion of subjects reporting hot flash ([5]; week 6): 60%

SMILES: CCNC(=O)[C@@H]1CCCN1C(=O)[C@H](CCCNC(=N)N)NC(=O)[C@H](CC(C)C)NC(=O)[C@@H](CC(C)C)NC(=O)[C@H](Cc1ccc(O)cc1)NC(=O)[C@H](CO)NC(=O)[C@H](Cc1c[nH]c2ccccc12)NC(=O)[C@H](Cc1c[nH]cn1)NC(=O)[C@@H]1CCC(=O)N1 [leuprolide acetate, reference compound]
- AE leading to discontinuation: Abdominal pain [6]: 1(0.7) n(%)
- AE leading to discontinuation: Arthralgia [6]: 1(0.7) n(%)
- AE leading to discontinuation: Back pain [6]: 1(0.7) n(%)
- AE leading to discontinuation: Blood pressure increased [6]: 1(0.7) n(%)
- AE leading to discontinuation: Depression [6]: 0(0.0) n(%)
- AE leading to discontinuation: Drug eruption [6]: 1(0.7) n(%)
- AE leading to discontinuation: Fatigue [6]: 0(0.0) n(%)
- AE leading to discontinuation: Headache [6]: 0(0.0) n(%)
- AE leading to discontinuation: Hot flush [6]: 1(0.7) n(%)
- AE leading to discontinuation: Hypertension [6]: 1(0.7) n(%)
- AE leading to discontinuation: Liver function test abnormal [6]: 1(0.7) n(%)
- AE leading to discontinuation: Liver function test increased [6]: 1(0.7) n(%)
- AE leading to discontinuation: Malaise [6]: 1(0.7) n(%)
- AE leading to discontinuation: Nausea [6]: 1(0.7) n(%)
- AE leading to discontinuation: Pyrexia [6]: 1(0.7) n(%)
- AE leading to discontinuation: Tenosynovitis [6]: 0(0.0) n(%)
- AE leading to discontinuation: Tenosynovitis stenosans [6]: 0(0.0) n(%)
- AE: Arthralgia [6]: 9(6.3) n(%)
- AE: Bone density decreased [6]: 8(5.6) n(%)
- AE: Bone resorption test abnormal [6]: 7(4.9) n(%)
- AE: Dizziness [6]: 7(4.9) n(%)
- AE: Gamma-glutamyl transferase increased [6]: 9(6.3) n(%)
- AE: Genital haemorrhage [6]: 7(4.9) n(%)
- AE: Headache [6]: 14(9.9) n(%)
- AE: Hot flush [6]: 75(52.8) n(%)
- AE: Hyperhidrosis [6]: 15(10.6) n(%)
- AE: Malaise [6]: 5(3.5) n(%)
- AE: Menorrhagia [6]: 22(15.5) n(%)
- AE: Metrorrhagia [6]: 93(65.5) n(%)
- AE: Resorption bone increased [6]: 8(5.6) n(%)
- AE: Somnolence [6]: 6(4.2) n(%)
- AE: Viral upper respiratory tract infection [6]: 46(32.4) n(%)
- AEs Leading to Study Drug Discontinuation [6]: 7(4.9) n(%)
- ALP > 3 × ULN [6]: 0 (0.0) n (%)
- ALT > 3 × ULN [6]: 2 (1.4) n (%)
- ALT > 5 × ULN [6]: 0 (0.0) n (%)
- ALT and AST > 3 × ULN [6]: 0 (0.0) n (%)
- ALT or AST > 3 × ULN with Tbili > 2 × ULN [6]: 0 (0.0) n (%)
- AST > 3 × ULN [6]: 0 (0.0) n (%)
- AST > 5 × ULN [6]: 0 (0.0) n (%)
- Any Markedly Abnormal LFT [6]: 2 (1.4) n (%)
- SAEs Leading to Study Drug Discontinuation [6]: 0(0.0) n(%)
- Serious Treatment-Emergent AEs [6]: 2(1.4) n(%)
- Serious Treatment-Emergent AEs, Not Related [6]: 2(1.4) n(%)
- Serious Treatment-Emergent AEs, Related [6]: 0(0.0) n(%)
- Treatment-Emergent AEs [6]: 139(97.9) n(%)
- Treatment-Emergent AEs, Not Related [6]: 5(3.5) n(%)
- Treatment-Emergent AEs, Related [6]: 134(94.4) n(%)
